From US20250312462A1, “PAK1 DEGRADERS AND METHODS OF USE THEREOF” (INSTITUTE FOR CANCER RESEARCH D/B/A THE RESEARCH INSTITUTE …, priority 2022, published 2025)

What was measured:
Experiment in all cases: KINOMEscan
Settings in all cases: read-out: Percent Control
[1] = biological target: PIM2 (Homo sapiens, UniProt Q9P1W9)
Protocol: (§1) The kinase engagement assay (KINOMEscan®) was performed by DiscoverX assessing binding abilities toward a set of kinases.

[2] = biological target: RET(M918T) (Homo sapiens, UniProt P07949, M918T)
Protocol: as §1

[3] = biological target: ACVR2B (Homo sapiens, UniProt Q13705)
Protocol: as §1

[4] = biological target: PRKG1 (Homo sapiens, UniProt Q13976)
Protocol: as §1

[5] = biological target: TIE1 (Homo sapiens, UniProt P35590)
Protocol: as §1

[6] = biological target: TRPM6 (Homo sapiens, UniProt Q9BX84)
Protocol: as §1

[7] = biological target: DLK (Homo sapiens, UniProt Q12852)
Protocol: as §1

[8] = biological target: CDC2L2 (Homo sapiens, UniProt Q9UQ88)
Protocol: as §1

[9] = biological target: JAK2(JH1domain-catalytic) (Homo sapiens, UniProt O60674)
Protocol: as §1

[10] = biological target: SRPK1 (Homo sapiens, UniProt Q96SB4)
Protocol: as §1

[11] = biological target: HIPK1 (Homo sapiens, UniProt Q86Z02)
Protocol: as §1

[12] = biological target: CIT (Homo sapiens, UniProt O14578)
Protocol: as §1

[13] = biological target: DMPK (Homo sapiens, UniProt Q09013)
Protocol: as §1

[14] = biological target: TIE2 (Homo sapiens, UniProt Q02763)
Protocol: as §1

[15] = biological target: ASK1 (Homo sapiens, UniProt Q99683)
Protocol: as §1

[16] = biological target: HIPK2 (Homo sapiens, UniProt Q9H2X6)
Protocol: as §1

Sequence of TRPM6 (Q9BX84 whole entry): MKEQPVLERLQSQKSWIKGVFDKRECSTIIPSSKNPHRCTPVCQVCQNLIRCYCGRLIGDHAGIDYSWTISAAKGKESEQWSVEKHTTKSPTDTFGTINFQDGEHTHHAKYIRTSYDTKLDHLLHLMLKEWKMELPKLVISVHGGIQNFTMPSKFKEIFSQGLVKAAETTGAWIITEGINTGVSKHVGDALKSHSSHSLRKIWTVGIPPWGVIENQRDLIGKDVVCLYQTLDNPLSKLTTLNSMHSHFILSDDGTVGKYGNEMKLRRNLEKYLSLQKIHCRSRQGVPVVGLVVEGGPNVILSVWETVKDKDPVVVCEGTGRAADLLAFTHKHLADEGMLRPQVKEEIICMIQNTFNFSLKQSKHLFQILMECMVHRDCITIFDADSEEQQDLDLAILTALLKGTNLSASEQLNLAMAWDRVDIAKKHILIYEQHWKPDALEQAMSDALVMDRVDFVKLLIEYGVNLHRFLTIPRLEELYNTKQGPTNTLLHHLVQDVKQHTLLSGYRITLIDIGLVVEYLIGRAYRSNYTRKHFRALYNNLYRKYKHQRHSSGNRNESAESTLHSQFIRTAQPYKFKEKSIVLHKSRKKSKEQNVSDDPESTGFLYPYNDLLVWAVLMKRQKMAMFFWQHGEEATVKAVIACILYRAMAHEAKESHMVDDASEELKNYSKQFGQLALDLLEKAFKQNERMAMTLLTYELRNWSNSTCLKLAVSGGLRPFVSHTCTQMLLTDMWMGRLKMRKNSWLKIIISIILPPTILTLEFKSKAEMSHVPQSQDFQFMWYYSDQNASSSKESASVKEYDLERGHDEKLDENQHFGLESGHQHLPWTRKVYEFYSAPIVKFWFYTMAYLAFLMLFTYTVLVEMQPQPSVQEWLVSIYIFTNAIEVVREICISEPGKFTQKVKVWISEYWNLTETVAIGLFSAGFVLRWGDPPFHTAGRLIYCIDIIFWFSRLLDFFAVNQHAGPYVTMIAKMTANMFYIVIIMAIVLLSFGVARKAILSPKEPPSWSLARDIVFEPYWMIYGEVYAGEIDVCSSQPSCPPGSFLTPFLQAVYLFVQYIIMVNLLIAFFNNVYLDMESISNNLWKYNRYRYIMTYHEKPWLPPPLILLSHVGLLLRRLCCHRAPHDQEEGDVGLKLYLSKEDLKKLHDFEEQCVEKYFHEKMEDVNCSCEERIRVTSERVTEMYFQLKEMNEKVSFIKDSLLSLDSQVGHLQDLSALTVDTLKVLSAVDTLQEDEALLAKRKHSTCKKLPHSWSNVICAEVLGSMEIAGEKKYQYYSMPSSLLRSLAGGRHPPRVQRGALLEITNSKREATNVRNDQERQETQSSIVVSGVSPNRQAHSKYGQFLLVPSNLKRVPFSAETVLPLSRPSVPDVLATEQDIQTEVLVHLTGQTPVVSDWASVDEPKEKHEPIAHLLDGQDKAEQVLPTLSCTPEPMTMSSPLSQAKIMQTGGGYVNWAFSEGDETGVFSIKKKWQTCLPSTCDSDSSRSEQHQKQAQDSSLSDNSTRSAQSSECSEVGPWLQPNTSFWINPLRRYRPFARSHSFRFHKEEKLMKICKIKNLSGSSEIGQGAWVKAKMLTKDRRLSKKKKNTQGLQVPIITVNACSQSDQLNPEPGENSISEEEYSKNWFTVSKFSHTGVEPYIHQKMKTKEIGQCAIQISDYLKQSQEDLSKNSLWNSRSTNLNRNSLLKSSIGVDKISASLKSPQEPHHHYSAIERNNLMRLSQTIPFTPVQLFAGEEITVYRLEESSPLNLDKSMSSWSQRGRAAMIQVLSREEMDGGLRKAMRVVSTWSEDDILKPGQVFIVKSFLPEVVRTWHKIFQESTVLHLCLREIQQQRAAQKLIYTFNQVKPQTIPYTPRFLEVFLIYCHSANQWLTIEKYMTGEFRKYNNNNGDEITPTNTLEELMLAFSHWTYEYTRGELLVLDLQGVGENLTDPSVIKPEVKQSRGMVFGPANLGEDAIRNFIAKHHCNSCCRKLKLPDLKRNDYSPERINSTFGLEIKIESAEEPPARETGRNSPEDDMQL
Sequence of CIT (O14578 whole entry): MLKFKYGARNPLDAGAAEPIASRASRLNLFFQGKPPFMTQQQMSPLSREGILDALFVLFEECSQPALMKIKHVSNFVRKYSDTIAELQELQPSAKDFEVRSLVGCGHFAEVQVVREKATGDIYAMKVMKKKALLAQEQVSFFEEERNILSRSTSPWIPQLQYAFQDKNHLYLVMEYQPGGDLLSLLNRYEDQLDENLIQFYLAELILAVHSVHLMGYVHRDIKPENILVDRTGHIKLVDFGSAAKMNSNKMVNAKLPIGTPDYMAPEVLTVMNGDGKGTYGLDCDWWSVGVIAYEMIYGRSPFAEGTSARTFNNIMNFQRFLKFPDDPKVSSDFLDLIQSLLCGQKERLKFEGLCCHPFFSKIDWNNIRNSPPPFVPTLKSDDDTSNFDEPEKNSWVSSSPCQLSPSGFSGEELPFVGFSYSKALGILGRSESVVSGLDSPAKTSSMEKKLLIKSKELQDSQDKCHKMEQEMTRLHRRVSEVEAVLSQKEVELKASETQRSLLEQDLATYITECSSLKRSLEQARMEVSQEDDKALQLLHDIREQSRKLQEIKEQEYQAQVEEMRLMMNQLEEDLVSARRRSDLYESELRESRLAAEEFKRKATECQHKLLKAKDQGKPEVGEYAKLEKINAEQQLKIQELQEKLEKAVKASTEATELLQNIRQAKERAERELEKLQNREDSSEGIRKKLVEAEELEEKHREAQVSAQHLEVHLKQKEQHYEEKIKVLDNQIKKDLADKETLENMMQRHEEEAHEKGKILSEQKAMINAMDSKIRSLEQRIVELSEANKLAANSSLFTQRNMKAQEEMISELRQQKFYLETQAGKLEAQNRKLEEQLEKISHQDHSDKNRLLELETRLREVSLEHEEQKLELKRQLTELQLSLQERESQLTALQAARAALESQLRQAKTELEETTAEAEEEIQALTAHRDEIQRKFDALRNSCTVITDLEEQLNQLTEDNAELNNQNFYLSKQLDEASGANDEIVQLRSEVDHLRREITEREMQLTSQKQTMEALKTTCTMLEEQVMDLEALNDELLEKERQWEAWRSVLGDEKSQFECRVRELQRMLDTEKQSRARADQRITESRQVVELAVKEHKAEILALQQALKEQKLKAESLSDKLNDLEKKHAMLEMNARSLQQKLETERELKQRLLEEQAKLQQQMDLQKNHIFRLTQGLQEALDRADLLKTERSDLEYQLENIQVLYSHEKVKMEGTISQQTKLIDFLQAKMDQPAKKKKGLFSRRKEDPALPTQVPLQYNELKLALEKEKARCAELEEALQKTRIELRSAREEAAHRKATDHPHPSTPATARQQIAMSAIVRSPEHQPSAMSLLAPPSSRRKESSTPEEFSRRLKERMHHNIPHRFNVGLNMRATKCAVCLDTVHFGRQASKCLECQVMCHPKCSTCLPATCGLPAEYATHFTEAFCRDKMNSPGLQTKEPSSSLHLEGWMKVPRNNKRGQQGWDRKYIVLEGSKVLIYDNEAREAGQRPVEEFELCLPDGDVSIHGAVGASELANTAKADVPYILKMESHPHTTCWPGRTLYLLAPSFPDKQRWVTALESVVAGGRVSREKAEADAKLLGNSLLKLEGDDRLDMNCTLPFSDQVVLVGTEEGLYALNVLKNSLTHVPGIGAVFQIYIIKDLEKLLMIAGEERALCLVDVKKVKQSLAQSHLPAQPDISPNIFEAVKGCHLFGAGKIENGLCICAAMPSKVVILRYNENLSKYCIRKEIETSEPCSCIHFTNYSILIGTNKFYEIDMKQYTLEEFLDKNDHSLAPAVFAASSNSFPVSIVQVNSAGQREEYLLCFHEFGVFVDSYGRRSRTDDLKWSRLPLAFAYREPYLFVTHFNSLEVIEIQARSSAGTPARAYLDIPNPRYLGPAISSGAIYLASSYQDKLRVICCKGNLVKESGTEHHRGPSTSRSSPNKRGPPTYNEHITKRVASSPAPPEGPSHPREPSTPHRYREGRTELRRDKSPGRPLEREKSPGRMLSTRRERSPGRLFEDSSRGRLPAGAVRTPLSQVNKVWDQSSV
Sequence of RET(M918T) (P07949 29-1114 M918T): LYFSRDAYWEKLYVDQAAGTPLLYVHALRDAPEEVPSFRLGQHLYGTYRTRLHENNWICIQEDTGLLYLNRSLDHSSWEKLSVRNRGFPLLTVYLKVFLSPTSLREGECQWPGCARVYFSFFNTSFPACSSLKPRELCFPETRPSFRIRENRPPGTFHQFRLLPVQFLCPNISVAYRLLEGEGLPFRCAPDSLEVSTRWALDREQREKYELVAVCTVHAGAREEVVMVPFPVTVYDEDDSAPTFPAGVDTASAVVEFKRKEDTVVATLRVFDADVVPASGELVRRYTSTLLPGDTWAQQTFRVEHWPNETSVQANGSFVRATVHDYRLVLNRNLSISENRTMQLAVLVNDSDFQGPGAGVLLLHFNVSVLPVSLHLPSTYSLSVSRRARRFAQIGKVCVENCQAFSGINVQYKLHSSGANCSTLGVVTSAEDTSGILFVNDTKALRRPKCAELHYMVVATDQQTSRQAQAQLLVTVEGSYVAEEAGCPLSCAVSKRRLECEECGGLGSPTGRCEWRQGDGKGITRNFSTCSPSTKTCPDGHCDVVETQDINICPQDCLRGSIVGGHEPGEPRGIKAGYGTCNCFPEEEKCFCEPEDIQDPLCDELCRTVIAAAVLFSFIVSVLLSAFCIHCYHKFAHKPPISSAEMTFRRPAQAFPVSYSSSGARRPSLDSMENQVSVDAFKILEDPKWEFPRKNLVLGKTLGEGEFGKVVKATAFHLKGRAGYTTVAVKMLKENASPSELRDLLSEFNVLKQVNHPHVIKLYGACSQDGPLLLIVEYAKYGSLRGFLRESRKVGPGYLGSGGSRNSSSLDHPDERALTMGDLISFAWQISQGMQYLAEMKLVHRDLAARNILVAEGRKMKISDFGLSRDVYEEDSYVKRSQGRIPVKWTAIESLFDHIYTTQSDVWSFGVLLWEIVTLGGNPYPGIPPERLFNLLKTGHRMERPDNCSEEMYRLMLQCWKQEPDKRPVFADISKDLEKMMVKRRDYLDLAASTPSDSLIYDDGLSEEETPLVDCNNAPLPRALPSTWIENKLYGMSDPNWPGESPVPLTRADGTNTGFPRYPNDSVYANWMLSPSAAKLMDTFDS

O=C1CCC(N2C(=O)c3cccc(NCCCCCCCCNC(=O)N4CC[C@H](NC5=Nc6cc(F)ccc6N(CC(F)F)c6ccc(Cl)cc65)C4)c3C2=O)C(=O)N1 (stereo partly drawn) [BJG-05-039, (3S)-3-((2-Chloro-5-(2,2-difluoroethyl)-8-fluoro-5H-dibenzo[b,e][1,4]diazepin-11-yl)amino)-N-(8-((2-(2,6-dioxopiperidin-3-yl)-1,3-dioxoisoindolin-4-yl)amino)octyl)pyrrolidine-1-carboxamide]
remaining binding at 10 µM [1]: 82%
remaining binding at 10 µM [2]: 90%
remaining binding at 10 µM [3]: 46%
remaining binding at 10 µM [4]: 57%
remaining binding at 10 µM [5]: 62%
remaining binding at 10 µM [6]: 94%
remaining binding at 10 µM [7]: 100%
remaining binding at 10 µM [8]: 84%
remaining binding at 10 µM [9]: 99%
remaining binding at 10 µM [10]: 87%
remaining binding at 10 µM [11]: 100%
remaining binding at 10 µM [12]: 94%
remaining binding at 10 µM [13]: 52%
remaining binding at 10 µM [14]: 98%
remaining binding at 10 µM [15]: 73%
remaining binding at 10 µM [16]: 100%
